From PubChem BioAssay (NCI)
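96-well plates; 48 h exposure; 5 concentrations. Endpoints by linear interpolation between flanking doses. Not reached: highest tested concentration assigned. TGI denotes the concentration required for complete inhibition of growth.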

What was measured:
Assay in all cases: inhibition of tumour cell growth, NCI panel, 48 h
[1] = system: SN12C renal
[2] = system: SR leukemia
[3] = system: HL-60(TB) leukemia
[4] = system: PC-3 prostate
[5] = system: HCT-15 colon
[6] = system: MDA-MB-435
[7] = system: NCI-H226 lung
[8] = system: IGROV1 ovarian
[9] = system: SK-MEL-5 melanoma
[10] = system: UACC-257 melanoma
[11] = system: MOLT-4 leukemia
[12] = system: SW-620 colon
[13] = system: M14 melanoma
[14] = system: HCT-116 colon
[15] = system: OVCAR-5 ovarian
[16] = system: BT-549 breast
[17] = system: MALME-3M melanoma
[18] = system: K-562 leukemia
[19] = system: NCI/ADR-RES ovarian
[20] = system: SK-MEL-2 melanoma
[21] = system: A498 renal
[22] = system: SK-MEL-28 melanoma
[23] = system: OVCAR-4 ovarian
[24] = system: SNB-19 CNS
[25] = system: HOP-92 NSCLC
[26] = system: MDA-MB-231 breast
[27] = system: TK-10 renal
[28] = system: RPMI-8226 leukemia
[29] = system: SF-295 CNS
[30] = system: SF-539 CNS
[31] = system: UACC-62 melanoma
[32] = system: A549 NSCLC
[33] = system: U251 CNS
[34] = system: RXF 393 renal
[35] = system: SF-268 CNS
[36] = system: T-47D breast
[37] = system: HS 578T breast
[38] = system: COLO 205 colon
[39] = system: DU-145 prostate
[40] = system: CAKI-1 renal
[41] = system: OVCAR-3 ovarian
[42] = system: LOX IMVI melanoma
[43] = system: EKVX NSCLC
[44] = system: MDA-N
[45] = system: SK-OV-3 ovarian
[46] = system: NCI-H23 lung
[47] = system: ACHN renal
[48] = system: 786-0 renal
[49] = system: NCI-H522 lung
[50] = system: HT29 colon
[51] = system: MCF7 breast
[52] = system: OVCAR-8 ovarian
[53] = system: KM12 colon
[54] = system: HOP-62 NSCLC
[55] = system: SNB-75 CNS
[56] = system: NCI-H460 lung
[57] = system: HCC-2998 colon
[58] = system: UO-31 renal

Measured: TGI

O=C1CS(=O)C23c4cc5ccccc5n4CCC2CCCN13 (stereo not drawn)
not listed: [55] | [56] | [57] | [58]
> 100 µM: all other assays above

Cc1cn([C@H]2C[C@](C)(CO)N(C)O2)c(=O)[nH]c1=O
not listed: [5] | [30] | [41] | [52]
> 100 µM: all other assays above
